How the values were obtained:
[1] = biological target: Activin receptor type-2B (Homo sapiens) (UniProt Q13705); conditions: Compound concentration 1000.0 nM
[2] = biological target: Calcium/calmodulin-dependent protein kinase type II subunit beta (Homo sapiens) (UniProt Q13554); conditions: Compound concentration 1000.0 nM
[3] = biological target: Phosphatidylinositol 4-kinase beta (Homo sapiens) (UniProt Q9UBF8); conditions: Compound concentration 1000.0 nM
[4] = biological target: Serine/threonine-protein kinase mTOR (Homo sapiens) (UniProt P42345); conditions: Compound concentration 1000.0 nM
[5] = biological target: Proto-oncogene tyrosine-protein kinase ROS (Homo sapiens) (UniProt P08922); conditions: Compound concentration 1000.0 nM
[6] = biological target: SRSF protein kinase 3 (Homo sapiens) (UniProt Q9UPE1); conditions: Compound concentration 1000.0 nM
[7] = biological target: Cannabinoid receptor 1 (Homo sapiens) (UniProt P21554); assay: CB1 (h) Eurofins-Cerep binding assay; set-up: ligand concentration 0.5 nM; conditions: filed as agonist, Compound concentration 10.0 uM
[8] = biological target: Serine/threonine-protein kinase 35 (Homo sapiens) (UniProt Q8TDR2); conditions: Compound concentration 1000.0 nM
[9] = biological target: Serine/threonine-protein kinase ICK (Homo sapiens) (UniProt Q9UPZ9); conditions: Compound concentration 1000.0 nM
[10] = biological target: Substance-P receptor (Homo sapiens) (UniProt P25103); assay: NK1 (h) Eurofins-Cerep binding assay; set-up: ligand concentration 0.05 nM; conditions: filed as agonist, Compound concentration 10.0 uM
[11] = biological target: Mitogen-activated protein kinase 6 (Homo sapiens) (UniProt Q16659); conditions: Compound concentration 1000.0 nM
[12] = biological target: Dual specificity tyrosine-phosphorylation-regulated kinase 1A (Homo sapiens) (UniProt Q13627); conditions: Compound concentration 1000.0 nM
[13] = biological target: MAP kinase-activated protein kinase 5 (Homo sapiens) (UniProt Q8IW41); conditions: Compound concentration 1000.0 nM
[14] = biological target: MAP kinase-interacting serine/threonine-protein kinase 2 (Homo sapiens) (UniProt Q9HBH9); conditions: Compound concentration 1000.0 nM
[15] = biological target: Ribosomal protein S6 kinase alpha-6 (Homo sapiens) (UniProt Q9UK32); conditions: Compound concentration 1000.0 nM
[16] = biological target: Uncharacterized serine/threonine-protein kinase SBK3 (Homo sapiens) (UniProt P0C264); conditions: Compound concentration 1000.0 nM
[17] = biological target: Mitogen-activated protein kinase 13 (Homo sapiens) (UniProt O15264); conditions: Compound concentration 1000.0 nM
[18] = biological target: Serine/threonine-protein kinase SIK1 (Homo sapiens) (UniProt P57059); conditions: Compound concentration 1000.0 nM
[19] = biological target: Mitogen-activated protein kinase 8 (Homo sapiens) (UniProt P45983); conditions: Compound concentration 1000.0 nM
[20] = biological target: Serine/threonine-protein kinase MRCK gamma (Homo sapiens) (UniProt Q6DT37); conditions: Compound concentration 1000.0 nM
[21] = biological target: Wee1-like protein kinase (Homo sapiens) (UniProt P30291); conditions: Compound concentration 1000.0 nM
[22] = biological target: Ribosomal protein S6 kinase alpha-3 (Homo sapiens) (UniProt P51812); conditions: Compound concentration 1000.0 nM
[23] = biological target: Glutamate NMDA receptor (Rattus norvegicus) (UniProt P35439+Q00959+Q00960+Q00961+Q62645+Q8VHN2+Q9R1M7); assay: PCP Eurofins-Cerep binding assay; format: protein-complex assay; set-up: ligand concentration 10 nM; conditions: filed as antagonist, Compound concentration 10.0 uM
[24] = biological target: Serine/threonine-protein kinase SIK2 (Homo sapiens) (UniProt Q9H0K1); conditions: Compound concentration 1000.0 nM
[25] = biological target: Tyrosine-protein kinase JAK1 (Homo sapiens) (UniProt P23458); conditions: Compound concentration 1000.0 nM
[26] = biological target: Receptor tyrosine-protein kinase erbB-2 (Homo sapiens) (UniProt P04626); conditions: Compound concentration 1000.0 nM
[27] = biological target: Urotensin-2 receptor (Homo sapiens) (UniProt Q9UKP6); assay: UT (h) Eurofins-Cerep binding assay; set-up: ligand concentration 0.1 nM; conditions: filed as agonist, Compound concentration 10.0 uM
[28] = biological target: Protein kinase C eta type (Homo sapiens) (UniProt P24723); conditions: Compound concentration 1000.0 nM
[29] = biological target: Cyclin-dependent kinase 14 (Homo sapiens) (UniProt O94921); conditions: Compound concentration 1000.0 nM
[30] = biological target: Mitogen-activated protein kinase kinase kinase 4 (Homo sapiens) (UniProt Q9Y6R4); conditions: Compound concentration 1000.0 nM
[31] = biological target: Calcium/calmodulin-dependent protein kinase kinase 1 (Homo sapiens) (UniProt Q8N5S9); conditions: Compound concentration 1000.0 nM
[32] = biological target: Serine/threonine-protein kinase Chk2 (Homo sapiens) (UniProt O96017); conditions: Compound concentration 1000.0 nM
[33] = biological target: Tyrosine-protein kinase BTK (Homo sapiens) (UniProt Q06187); conditions: Compound concentration 1000.0 nM
[34] = biological target: T1, Muscarinic acetylcholine receptor M1 (Homo sapiens) (UniProt P11229); assay: M1 (h) Eurofins-Cerep binding assay; set-up: ligand concentration 2 nM; conditions: filed as antagonist, Compound concentration 10.0 uM
T1 sequence (whole entry): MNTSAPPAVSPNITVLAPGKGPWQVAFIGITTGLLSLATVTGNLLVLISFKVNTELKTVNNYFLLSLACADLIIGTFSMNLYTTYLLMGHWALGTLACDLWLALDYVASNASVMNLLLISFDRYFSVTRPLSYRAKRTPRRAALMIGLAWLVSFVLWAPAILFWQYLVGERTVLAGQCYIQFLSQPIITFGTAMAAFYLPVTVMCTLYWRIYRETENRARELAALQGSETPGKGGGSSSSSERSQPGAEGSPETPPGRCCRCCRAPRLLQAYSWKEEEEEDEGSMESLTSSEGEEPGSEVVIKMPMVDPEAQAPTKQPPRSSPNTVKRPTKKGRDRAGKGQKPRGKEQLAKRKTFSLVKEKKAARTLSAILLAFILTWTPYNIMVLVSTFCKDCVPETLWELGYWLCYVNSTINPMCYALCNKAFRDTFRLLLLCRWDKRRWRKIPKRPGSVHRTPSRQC

[35] = biological target: Aurora kinase C (Homo sapiens) (UniProt Q9UQB9); conditions: Compound concentration 1000.0 nM
[36] = tested on: NCI-H146; assay: CellTiter-Glo Luminescent Cell Viability Assay (BCL-XL dependent cell line H146); format: functional, cell-based; conditions: Homo sapiens
[37] = biological target: Mitogen-activated protein kinase 3 (Homo sapiens) (UniProt P27361); conditions: Compound concentration 1000.0 nM
[38] = biological target: Sigma intracellular receptor 2 (Homo sapiens, UniProt Q5BJF2); assay: GPCRScan assay: inhibition of Sigma 2; set-up: radioligand conc. used [nm] 5.0, parental cells HEKT
[39] = biological target: Calcium/calmodulin-dependent protein kinase type II subunit gamma (Homo sapiens) (UniProt Q13555); conditions: Compound concentration 1000.0 nM

Sequence of Cyclin-dependent kinase 14 (Homo sapiens) (O94921 whole entry): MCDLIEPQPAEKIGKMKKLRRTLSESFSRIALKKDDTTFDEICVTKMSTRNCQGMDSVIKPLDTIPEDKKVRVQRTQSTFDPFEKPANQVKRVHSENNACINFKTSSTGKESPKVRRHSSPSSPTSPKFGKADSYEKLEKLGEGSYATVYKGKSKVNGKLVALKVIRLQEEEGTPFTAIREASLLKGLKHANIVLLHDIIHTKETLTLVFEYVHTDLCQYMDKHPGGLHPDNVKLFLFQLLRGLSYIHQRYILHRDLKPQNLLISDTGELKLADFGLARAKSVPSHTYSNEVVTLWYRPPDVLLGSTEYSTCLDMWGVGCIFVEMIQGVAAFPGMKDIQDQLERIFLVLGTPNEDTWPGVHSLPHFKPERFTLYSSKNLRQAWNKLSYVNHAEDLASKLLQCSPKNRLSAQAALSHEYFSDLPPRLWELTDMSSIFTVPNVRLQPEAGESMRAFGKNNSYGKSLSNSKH
Sequence of Serine/threonine-protein kinase Chk2 (Homo sapiens) (O96017 whole entry): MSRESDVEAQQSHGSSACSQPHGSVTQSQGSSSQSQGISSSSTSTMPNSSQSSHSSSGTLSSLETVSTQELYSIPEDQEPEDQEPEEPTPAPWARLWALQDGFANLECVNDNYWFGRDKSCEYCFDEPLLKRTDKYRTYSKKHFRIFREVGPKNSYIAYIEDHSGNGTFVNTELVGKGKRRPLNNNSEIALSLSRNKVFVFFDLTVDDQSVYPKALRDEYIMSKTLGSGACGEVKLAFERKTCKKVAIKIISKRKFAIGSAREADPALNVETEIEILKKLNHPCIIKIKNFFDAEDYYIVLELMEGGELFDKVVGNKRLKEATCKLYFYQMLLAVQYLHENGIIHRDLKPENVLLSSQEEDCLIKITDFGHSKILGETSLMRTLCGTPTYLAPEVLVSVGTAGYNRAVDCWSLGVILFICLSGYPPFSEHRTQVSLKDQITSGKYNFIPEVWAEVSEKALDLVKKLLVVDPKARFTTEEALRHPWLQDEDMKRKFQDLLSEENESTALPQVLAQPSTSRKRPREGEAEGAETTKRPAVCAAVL
Sequence of Serine/threonine-protein kinase MRCK gamma (Homo sapiens) (Q6DT37 whole entry): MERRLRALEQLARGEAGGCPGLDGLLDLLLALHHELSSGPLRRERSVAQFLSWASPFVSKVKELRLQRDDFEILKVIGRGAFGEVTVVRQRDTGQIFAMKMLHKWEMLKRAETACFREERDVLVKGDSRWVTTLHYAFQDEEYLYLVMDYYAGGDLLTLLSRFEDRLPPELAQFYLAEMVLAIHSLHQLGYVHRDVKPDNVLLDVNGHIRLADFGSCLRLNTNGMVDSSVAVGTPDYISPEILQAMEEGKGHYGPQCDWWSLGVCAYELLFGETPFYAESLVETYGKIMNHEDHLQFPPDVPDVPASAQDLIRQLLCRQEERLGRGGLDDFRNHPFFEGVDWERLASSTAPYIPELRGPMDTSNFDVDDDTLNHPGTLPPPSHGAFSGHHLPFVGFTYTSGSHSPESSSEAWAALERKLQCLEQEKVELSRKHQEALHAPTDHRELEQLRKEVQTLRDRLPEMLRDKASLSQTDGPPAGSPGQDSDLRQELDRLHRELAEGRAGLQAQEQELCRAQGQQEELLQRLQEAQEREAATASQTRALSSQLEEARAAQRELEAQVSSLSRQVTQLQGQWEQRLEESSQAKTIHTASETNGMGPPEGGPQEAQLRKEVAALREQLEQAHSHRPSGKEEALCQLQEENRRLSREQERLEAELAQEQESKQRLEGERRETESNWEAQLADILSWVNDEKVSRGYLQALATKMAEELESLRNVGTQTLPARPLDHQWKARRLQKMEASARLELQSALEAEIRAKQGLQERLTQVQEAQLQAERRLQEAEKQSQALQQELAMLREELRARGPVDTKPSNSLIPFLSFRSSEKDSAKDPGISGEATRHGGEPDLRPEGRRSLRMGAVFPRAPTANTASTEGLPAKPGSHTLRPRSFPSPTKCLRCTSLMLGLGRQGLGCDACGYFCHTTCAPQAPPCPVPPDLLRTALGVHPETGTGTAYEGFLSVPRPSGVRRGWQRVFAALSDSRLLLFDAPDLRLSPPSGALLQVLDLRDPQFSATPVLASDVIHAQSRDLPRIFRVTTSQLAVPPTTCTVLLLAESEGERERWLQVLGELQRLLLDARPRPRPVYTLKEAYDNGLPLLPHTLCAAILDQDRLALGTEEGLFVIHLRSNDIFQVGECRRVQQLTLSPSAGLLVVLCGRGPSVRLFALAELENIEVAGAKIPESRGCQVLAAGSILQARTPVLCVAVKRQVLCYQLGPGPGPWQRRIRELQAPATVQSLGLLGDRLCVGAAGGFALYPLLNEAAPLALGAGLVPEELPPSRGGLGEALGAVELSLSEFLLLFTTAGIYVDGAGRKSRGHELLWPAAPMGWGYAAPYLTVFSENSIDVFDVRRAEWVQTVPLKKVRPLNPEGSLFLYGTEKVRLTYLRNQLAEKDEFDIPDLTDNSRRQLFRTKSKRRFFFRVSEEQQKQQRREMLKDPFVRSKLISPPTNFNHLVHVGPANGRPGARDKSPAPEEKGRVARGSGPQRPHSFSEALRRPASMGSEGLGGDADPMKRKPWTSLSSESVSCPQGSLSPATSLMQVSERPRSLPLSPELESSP
Sequence of Tyrosine-protein kinase BTK (Homo sapiens) (Q06187 whole entry): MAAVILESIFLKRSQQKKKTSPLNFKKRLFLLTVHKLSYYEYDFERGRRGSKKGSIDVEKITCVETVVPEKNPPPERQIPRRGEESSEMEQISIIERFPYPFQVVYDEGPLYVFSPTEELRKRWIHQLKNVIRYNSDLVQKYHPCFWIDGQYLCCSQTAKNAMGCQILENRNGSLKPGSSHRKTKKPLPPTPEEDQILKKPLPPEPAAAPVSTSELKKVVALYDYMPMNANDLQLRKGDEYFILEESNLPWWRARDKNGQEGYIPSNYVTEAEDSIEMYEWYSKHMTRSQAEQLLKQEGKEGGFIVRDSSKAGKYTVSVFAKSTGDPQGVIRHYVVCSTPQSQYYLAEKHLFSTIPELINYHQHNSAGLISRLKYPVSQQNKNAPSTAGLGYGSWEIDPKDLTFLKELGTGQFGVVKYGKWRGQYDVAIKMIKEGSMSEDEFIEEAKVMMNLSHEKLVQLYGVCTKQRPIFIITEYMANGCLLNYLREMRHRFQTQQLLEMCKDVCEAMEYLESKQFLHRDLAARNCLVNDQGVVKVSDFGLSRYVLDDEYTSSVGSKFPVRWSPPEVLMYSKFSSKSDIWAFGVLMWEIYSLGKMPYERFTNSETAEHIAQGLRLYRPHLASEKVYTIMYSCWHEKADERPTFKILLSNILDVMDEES
Sequence of Activin receptor type-2B (Homo sapiens) (Q13705 whole entry): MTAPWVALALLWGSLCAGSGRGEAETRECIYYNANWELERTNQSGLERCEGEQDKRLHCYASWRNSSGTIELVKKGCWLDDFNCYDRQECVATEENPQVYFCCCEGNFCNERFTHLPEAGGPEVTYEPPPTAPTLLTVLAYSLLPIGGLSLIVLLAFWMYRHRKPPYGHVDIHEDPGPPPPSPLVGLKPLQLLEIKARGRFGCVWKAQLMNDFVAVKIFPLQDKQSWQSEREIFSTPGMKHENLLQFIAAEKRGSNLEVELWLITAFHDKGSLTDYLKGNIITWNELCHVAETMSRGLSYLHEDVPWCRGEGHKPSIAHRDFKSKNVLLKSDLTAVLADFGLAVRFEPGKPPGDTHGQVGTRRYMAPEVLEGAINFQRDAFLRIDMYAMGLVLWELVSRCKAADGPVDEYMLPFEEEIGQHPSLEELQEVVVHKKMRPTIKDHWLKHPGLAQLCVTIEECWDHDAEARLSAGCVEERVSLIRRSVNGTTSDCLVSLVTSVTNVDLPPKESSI
Sequence of MAP kinase-activated protein kinase 5 (Homo sapiens) (Q8IW41 whole entry): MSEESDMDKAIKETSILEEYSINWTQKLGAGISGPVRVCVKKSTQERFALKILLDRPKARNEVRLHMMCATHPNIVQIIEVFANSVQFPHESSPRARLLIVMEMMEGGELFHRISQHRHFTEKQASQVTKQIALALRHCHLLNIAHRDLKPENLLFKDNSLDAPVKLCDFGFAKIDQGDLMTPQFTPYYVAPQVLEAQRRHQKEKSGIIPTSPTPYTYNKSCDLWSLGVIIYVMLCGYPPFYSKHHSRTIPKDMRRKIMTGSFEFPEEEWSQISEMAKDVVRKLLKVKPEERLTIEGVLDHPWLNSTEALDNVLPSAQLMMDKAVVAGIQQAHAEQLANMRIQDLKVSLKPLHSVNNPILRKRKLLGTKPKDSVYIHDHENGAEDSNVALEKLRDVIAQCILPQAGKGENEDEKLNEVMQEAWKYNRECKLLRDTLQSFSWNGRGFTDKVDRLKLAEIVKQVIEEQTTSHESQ
Sequence of Ribosomal protein S6 kinase alpha-3 (Homo sapiens) (P51812 whole entry): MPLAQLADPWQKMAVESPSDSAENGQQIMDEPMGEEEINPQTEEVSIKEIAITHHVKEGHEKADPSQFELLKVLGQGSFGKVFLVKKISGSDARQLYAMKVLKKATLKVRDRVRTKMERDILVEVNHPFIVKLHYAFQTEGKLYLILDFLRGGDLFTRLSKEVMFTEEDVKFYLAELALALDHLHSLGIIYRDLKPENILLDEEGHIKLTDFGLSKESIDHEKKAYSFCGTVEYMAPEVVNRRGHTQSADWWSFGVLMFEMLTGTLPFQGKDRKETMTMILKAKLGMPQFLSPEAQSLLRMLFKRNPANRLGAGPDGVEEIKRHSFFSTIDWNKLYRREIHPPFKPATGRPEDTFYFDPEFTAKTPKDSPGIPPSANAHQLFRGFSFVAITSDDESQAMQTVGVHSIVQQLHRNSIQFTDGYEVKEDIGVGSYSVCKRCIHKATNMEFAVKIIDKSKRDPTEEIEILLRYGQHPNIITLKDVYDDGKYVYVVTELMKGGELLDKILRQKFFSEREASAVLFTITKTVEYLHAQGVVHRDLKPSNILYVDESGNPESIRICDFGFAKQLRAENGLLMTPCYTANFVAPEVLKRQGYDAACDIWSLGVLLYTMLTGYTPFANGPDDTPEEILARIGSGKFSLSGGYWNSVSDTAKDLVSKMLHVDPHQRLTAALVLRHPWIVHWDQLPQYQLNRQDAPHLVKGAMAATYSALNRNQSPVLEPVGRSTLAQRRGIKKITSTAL

Structure (SMILES) | residual activity [1] [%] | residual activity [2] [%] | residual activity [3] [%] | residual activity [4] [%] | residual activity [5] [%] | residual activity [6] [%] | % Inhibition of Control Specific Binding (Mean n=2) [7] [%] | residual activity [8] [%] | residual activity [9] [%] | % Inhibition of Control Specific Binding (Mean n=2) [10] [%] | residual activity [11] [%] | residual activity [12] [%] | residual activity [13] [%] | residual activity [14] [%] | residual activity [15] [%] | residual activity [16] [%] | residual activity [17] [%] | residual activity [18] [%] | residual activity [19] [%] | residual activity [20] [%] | further results
O=C(NS(=O)(=O)c1ccc(NCC2CCOCC2)c([N+](=O)[O-])c1)c1ccc(N2CCN(Cc3ccc(C(F)(F)F)cc3-c3ccc(Cl)cc3)CC2)cc1Oc1cnc2[nH]ccc2c1 [A-1210227] | 94 | 96 | 79 | 100 | 87 | 100 | -13.7 | 95 | 84 | -284 | 100 | 63 | 81 | 83 | 100 | 100 | 99 | 90 | 78 | 100 | residual activity [21]: 100%; residual activity [22]: 100%; % Inhibition of Control Specific Binding (Mean n=2) [23]: 19.2%; residual activity [24]: 100%; residual activity [25]: 100%; residual activity [26]: 100%; % Inhibition of Control Specific Binding (Mean n=2) [27]: 2.7%; residual activity [28]: 100%; residual activity [29]: 100%; residual activity [30]: 94%; residual activity [31]: 92%; residual activity [32]: 95%; residual activity [33]: 100%; % Inhibition of Control Specific Binding (Mean n=2) [34]: -0.2%; residual activity [35]: 97%; EC50 [36]: > 5 µM (not active); residual activity [37]: 98%; Ki [38]: 8.37 µM; residual activity [39]: 88%
CO[C@H]1CC[C@H](CNc2ccc(S(=O)(=O)NC(=O)c3ccc(N4CCN(CC5=C(c6ccc(Cl)cc6)CC(C)(C)CC5)CC4)cc3Oc3cnc4[nH]ccc4c3)cc2[N+](=O)[O-])CC1 [A-1211212] | 95 | 80 | 97 | 50 | 72 | 100 | -6.4 | 93 | 68 | -60.6 | 81 | 65 | 82 | 73 | 81 | 83 | 96 | 90 | 82 | 75 | residual activity [21]: 100%; residual activity [22]: 71%; % Inhibition of Control Specific Binding (Mean n=2) [23]: 1.9%; residual activity [24]: 100%; residual activity [25]: 96%; residual activity [26]: 54%; % Inhibition of Control Specific Binding (Mean n=2) [27]: 8.6%; residual activity [28]: 60%; residual activity [29]: 100%; residual activity [30]: 90%; residual activity [31]: 83%; residual activity [32]: 89%; residual activity [33]: 100%; % Inhibition of Control Specific Binding (Mean n=2) [34]: -7.2%; residual activity [35]: 87%; EC50 [36]: > 5 µM (not active); residual activity [37]: 80%; Ki [38]: 1.49 µM; residual activity [39]: 75%

Reference: ChEMBL document CHEMBL4507310, “Data for DCP probe A-1211212” (2021)
